The target in this data set is HSD17B13. The following applies: ASO, HepaRG.

After the bases stand the sugars from the 5' end (letter, count) and the backbone: PS all phosphorothioate, else s phosphorothioate and o phosphodiester by linkage. Methylation of C is not given here. e = 2'-O-(2-methoxyethyl) (MOE); k = constrained ethyl (cEt); d = 2'-deoxy (DNA); m = 2'-O-methyl

For CTAAAATTGTCTAAAC (sugars k3 d10 k3, PS), the target mRNA inhibition (1 µM) came out at 35%. Same read-out and setting: for “CTTTTTATAGACTGGG (sugars k3 d9 k3 e1, PS)” the value was 44%; for AATAGAGTTGCACCGT (sugars k3 d10 k3, PS), 48%; for “CTTGATCTCTTAGCTG (sugars k3 d9 k3 e1, PS)”, 36%.

For the setting “1 µM”, TATTGGTAAGTATTCC (sugars k3 d10 k3, PS) came in with a target mRNA inhibition of 67%. For AATGAATCATGATTGA (sugars k3 d10 k3, PS), the target mRNA inhibition (1 µM) was found to be 33%. As to CTACAAAACTGGTATC (sugars k3 d10 k3, PS), the target mRNA inhibition (1 µM) stood at 0%.

The sequence CAGCATTGTAATCTTG (sugars k3 d10 k3, PS) gave a target mRNA inhibition (1 µM) of 43%.

Take CTCCTGAGTCTTTCTA (sugars k3 d10 k3, PS): the target mRNA inhibition (1 µM) came out at 23%. The sequence “TATCAGACTTCTTACG (sugars k3 d1 m1 d8 k3, PS)” showed a target mRNA inhibition (1 µM) of 27%. For GATTACAGCATCAAGA (sugars k3 d10 k3, PS), the target mRNA inhibition (1 µM) was 52%. Same read-out and setting: for CCATCATCGATGGAAG (sugars k3 d10 k3, PS) the value was 8%; for AAGTTTTGGGACCAAT (sugars k3 d10 k3, PS), 11%; for TCCTAGGGAGGAGGTA (sugars k3 d10 k3, PS), 33%. Consider “TTCTTATGTAATAGCC (sugars kkdddddddddkekek, PS)”, for which the target mRNA inhibition is, setting by setting: (0.02 µM) 8%; (0.078 µM) 28%; (0.313 µM) 52%; (1 µM) 78%; (1.25 µM) 79%; (5 µM) 82%. For the setting “1 µM”, “CTGTGTTAGCTTTAAT (sugars kkdddddddddkekek, PS)” yielded a target mRNA inhibition of 47%. Under “1 µM”, TGAGCTAGACAATTGC (sugars k3 d10 k3, PS) showed a target mRNA inhibition of 78%. On to CTAAATTACTCCGTTC (sugars k3 d10 k3, PS), for which the target mRNA inhibition (1 µM) stood at 20%. The same measure, in the same setting: for GCTGGTAAAGGTAAGG (sugars k3 d10 k3, PS) the value was 65%; for ATAATTACAACCTGGT (sugars k3 d10 k3, PS), 44%; for ATTACAGCATCAAGAC (sugars k3 d10 k3, PS), 63%.

Regarding TTCTTGAGAGTGATTG (sugars k3 d10 k3, PS), the target mRNA inhibition (1 µM) was found to be 52%. On to CTTCTATTGTATGAGG (sugars k3 d10 k3, PS), for which the target mRNA inhibition (1 µM) came to 40%. In turn, GAGTAATCAGTTTTCC (sugars k3 d10 k3, PS) returned a target mRNA inhibition (1 µM) of 65%. Same read-out and setting: next, TATTTAGGGCAAACCT (sugars k3 d10 k3, PS): 40%; “AGTCGGTCACCTTTCA (sugars k3 d1 m1 d8 k3, PS)”: 61%. The same measure, in the same setting: for “CCTCGATCCTATATAC (sugars k3 d9 k3 e1, PS)” the value was 11%; for TAGCCAGTACAGTTCC (sugars k3 d10 k3, PS), 52%; for “AGCCAGTACAGTTCCT (sugars k3 d1 m1 d8 k3, PS)”, 65%. For the sequence GAACAGTTCAACTGAA (sugars k3 d10 k3, PS), for the setting “1 µM”, the target mRNA inhibition came to 10%. The sequence GCGCTTATTAATATCC (sugars k3 d10 k3, PS) yielded a target mRNA inhibition (1 µM) of 3%. Regarding TCCTTGTGTAGTCCTA (sugars k3 d10 k3, PS), under “1 µM”, the target mRNA inhibition turned out to be 61%. Where the note is “1 µM”, CCAACCCAAGCTACCT (sugars k3 d10 k3, PS) came in with a target mRNA inhibition of 15%. For the setting “1 µM”, GTGTAGTCCTAGGGAG (sugars k3 d10 k3, PS) registered a target mRNA inhibition of 67%.

Take ACCAACGACTCCAAGT (sugars k3 d10 k3, PS): the target mRNA inhibition (1 µM) worked out at 16%. With “ATGGCTACAGATTGGA (sugars k3 d9 k3 e1, PS)”, the target mRNA inhibition (1 µM) was 65%.

Consider ACAATCAGGAGTTGCA (sugars k3 d10 k3, PS), for which, for the setting “1 µM”, the target mRNA inhibition was found to be 62%. Same read-out and setting: for ATCCTACATGTAAGGT (sugars k3 d10 k3, PS) the value was 24%. Sequence ACCACACTAATGAATC (sugars k3 d10 k3, PS) displayed a target mRNA inhibition (1 µM) of 54%. AGCATCAAGACATTCT (sugars k3 d10 k3, PS) had a target mRNA inhibition (0.02 µM) of 5%; a target mRNA inhibition (0.078 µM) of 15%; a target mRNA inhibition (0.313 µM) of 62%; a target mRNA inhibition (1 µM) of 79%; a target mRNA inhibition (1.25 µM) of 78%; a target mRNA inhibition (5 µM) of 86%. Sequence “AGGTAGCTTTTGTCCA (sugars kkdddddddddkekek, PS)” returned a target mRNA inhibition (1 µM) of 26%. In the case of ACCCAAGCTACCTCCA (sugars k3 d10 k3, PS), for the setting “1 µM”, the target mRNA inhibition was 9%. With ATTATTATGTGATTGA (sugars k3 d10 k3, PS), the target mRNA inhibition (1 µM) was found to be 39%. Sequence GTAGAATTGTCTGTTA (sugars k3 d10 k3, PS) registered a target mRNA inhibition (1 µM) of 51%. For GTTTATCAGTAAAGTG (sugars k3 d10 k3, PS), the target mRNA inhibition (1 µM) was 64%. Sequence TAGGATTAATCATGGG (sugars k3 d10 k3, PS) gave a target mRNA inhibition (1 µM) of 47%.

In turn, GAAATAACTGTTCTCC (sugars k3 d10 k3, PS) displayed a target mRNA inhibition (1 µM) of 32%. Where the note is “1 µM”, TCTTTAGTCAACAGTA (sugars k3 d10 k3, PS) gave a target mRNA inhibition of 68%. For the sequence TACTTACTTCTGTAGT (sugars k3 d10 k3, PS), the target mRNA inhibition (1 µM) worked out at 12%. GGTGGACTTCAGAGTT (sugars k3 d10 k3, PS) gave a target mRNA inhibition (1 µM) of 26%.

As to GCAATGAGATTACCCC (sugars k3 d10 k3, PS), the target mRNA inhibition runs as follows: (0.02 µM) 3%; (0.078 µM) 26%; (0.313 µM) 58%; (1 µM) 83%; (1.25 µM) 83%; (5 µM) 89%. Turning to CTGGAAGATTAATCAT (sugars k3 d10 k3, PS), under “1 µM”, the target mRNA inhibition is 31%. Regarding TGGGATACTATTCTCC (sugars k3 d10 k3, PS), where the note is “1 µM”, the target mRNA inhibition is 18%. As for ATGTTTATGTAAGCAC (sugars k3 d10 k3, PS), the target mRNA inhibition (1 µM) turned out to be 70%. Consider GGATGTTGACCTCAAA (sugars k3 d10 k3, PS), for which the target mRNA inhibition (1 µM) is 5%. Under “1 µM”, “GTTAGTATAGTTATCT (sugars kkdddddddddkekek, PS)” yielded a target mRNA inhibition of 51%. For CGTCAAATAGGGCTGG (sugars k3 d10 k3, PS), the target mRNA inhibition (1 µM) amounted to 53%. AAGTTTGTTAGAGTGC (sugars k3 d10 k3, PS) showed a target mRNA inhibition (1 µM) of 74%. On the same count and under the same terms, next, ACATCCAAGTAATTAC (sugars k3 d10 k3, PS): 56%. Sequence “GTAATCACAAGTAAGG (sugars k3 d9 k3 e1, PS)” had a target mRNA inhibition (1 µM) of 56%.

In turn, GTGCCAAACCAATGTT (sugars k3 d10 k3, PS) came in with a target mRNA inhibition (1 µM) of 43%. “AGATAAAGCTGCCTGC (sugars k3 d9 k3 e1, PS)” yielded a target mRNA inhibition (1 µM) of 44%.

For GAAACCAATCCTCAGC (sugars k3 d10 k3, PS), under “1 µM”, the target mRNA inhibition is 3%. Same read-out and setting: for “ATACATTAGCAAGCTA (sugars k3 d1 m1 d8 k3, PS)” the value was 36%.

(Values after the OligoGym collection.)
